Where two headings read alike, the source gives them in different places.
Assay: Single dose, open-label food effect pharmacokinetic trial of oral capsules in healthy subjects
Type: in vivo, human
Conditions: for bioavailability / Tmax: human, plasma, po; for bioavailability: healthy subjects; for Tmax: oral administration
Protocol: A single centre, single dose, open-label trial in healthy subjects was conducted. Study drug treatments were as follows: • Treatment A: Compound No. 1, in capsule form (25-400 mg) administered without food; • Treatment B: Compound No. 1, in capsule form (400-800 mg) administered with a normal fat meal; • Treatment C: Compound No. 1, in capsule form (400-1600 mg) administered with a high-fat meal.
In treatment A, subjects fasted overnight with water permitted up to one hour before dosing. One or more 25 mg or 100 mg capsules of Compound No. 1 were administered with 240 mL room temperature water. Subjects continued to fast for approximately 4 hours until lunch. All meals and snacks provided during the study were low fat and standardized. Additional water was allowed ad lib but there was no caffeine, smoking or alcohol and no vigorous exercise.
In treatments B and C, subjects consumed breakfast the day of the study. Breakfast commenced approximately 30 minutes prior to dosing with dosing occurring within 10 minutes after finishing the meal. One or more 25 mg or 100 mg capsules containing Compound No. 1 were administered to the subjects with 240 mL room temperature water. After dosing, subjects consumed no food until lunch and otherwise followed the same protocol as in treatment A.
In treatment B, a normal fat meal consisted of: toast with 1 pat of butter; a banana; 2% milk; apple juice; and Honey Nut Cheerios®. In treatment C, a high fat meal consisted of: 2 slices of buttered toast, 2 eggs fried in butter, 2 slices of bacon, 4 oz hash brown potatoes and 8 oz of whole milk.
Subjects received one or two doses. There was a washout period of at least 14 days between study drug administrations in those subjects dosed more than once. […] The actual dosing and sample times were recorded on a Case Report Form. At least 15 blood samples were collected during the period from pre-dose through 48 hours post-dose; in most subjects, additional samples were obtained at 60, 72, 120, 168 and 336 hours post-dose. Concentrations of Compound No. 1 were determined in plasma by BASi Northwest Laboratories Inc. (McMinnville, Oreg.) by LC-MS/MS. The lower limit of quantitation for Compound No. 1 was 0.05 ng/mL. Sample values below the lower limit of quantitation were reported as “<0.05 ng/mL”.
Pharmacokinetic parameters were obtained using compartmental methods. Relative exposure was quantified through the term relative bioavailability. In that none of the subjects received an intravenous dose of Compound No. 1, absolute bioavailability could not be determined. […] There were no protocol deviations that confounded the pharmacokinetic analyses.
Statistical analyses were performed using NONMEM version 5. Study results were not corrected for drug potency.

bioavailability, normal fat meal vs high fat meal (individual plasma concentrations, FIGS. 3 and 4) (400 mg and 800 mg dosage): increased bioavailability
decrease of bioavailability (fasting compared to a normal fat meal): 32%
increase of bioavailability of capsules (high fat meal compared to a normal fat meal): 460%
bioavailability (typical value, read-out: Relative bioavailability, 25-mg capsules (relative to 100-mg capsules)): 148%
Tmax (subjects fasted): < 2 h
Tmax (subjects fed a high fat meal): 4 to 5 h
Tmax (subjects fed a normal fat meal): 2 to 5 h
bioavailability (oral capsules, typical value of compartmental NONMEM analysis, read-out: Relative bioavailability, Fasted (relative to normal-fat meal)): 68.2%
SMILES: O=C(CC(c1ccccc1)c1ccccc1)N1CCN(C(c2ccccc2)c2ccccc2)CC1 [Compound No. 1, 1-(3,3-diphenylpropionyl)-4-benzhydryl piperazine]

From patent US8362021B2, “Method for increasing the bioavailability of benzhydryl piperazine containing compounds” (Zalicus Pharmaceuticals Ltd., priority 2006, dated 2013)
